# Source: ChEMBL document CHEMBL3885881, “DrugMatrix”
# Organism: Rattus norvegicus
# Experiment: DrugMatrix - Regimen: Daily Repeat
# Type: toxicity, organism-based, Sprague-Dawley
# Set-up: regimen Daily Repeat, gender Male, age 6-8 weeks
# Conditions: in vivo, po, 0 mg/kg, route oral GAVAGE, dose level Control, vehicle 100 % SALINE; for ABSOLUTE BASOPHIL / ABSOLUTE EOSINOPHIL / ABSOLUTE LYMPHOCYTE / ABSOLUTE MONOCYTE / ABSOLUTE SEGMENTED NEUTROPHIL / BASOPHIL / EOSINOPHIL / ERYTHROCYTE COUNT / HEMATOCRIT / HEMOGLOBIN / LEUKOCYTE COUNT / LYMPHOCYTE / MEAN CORPUSCULAR HEMOGLOBIN / MEAN CORPUSCULAR HEMOGLOBIN CONCENTRATION / MEAN CORPUSCULAR VOLUME / MONOCYTE / NEUTROPHIL / NUCLEATED RED BLOOD CELLS / PLATELET COUNT: tissue Blood; for ALANINE AMINOTRANSFERASE / ALBUMIN / ALKALINE PHOSPHATASE / ASPARTATE AMINOTRANSFERASE / BLOOD UREA NITROGEN / CARBON DIOXIDE / CHLORIDE / CHOLESTEROL / CREATINE PHOSPHOKINASE / CREATININE / GLUCOSE / LACTATE DEHYDROGENASE / LIPASE / PHOSPHORUS / POTASSIUM / SODIUM / TOTAL BILIRUBIN / TOTAL PROTEIN / URIC ACID: tissue Plasma
compound,measurement,setting,value
CC(=O)OCC(CCn1cnc2cnc(N)nc21)COC(C)=O [FAMCICLOVIR],ABSOLUTE BASOPHIL,"72 h, time 3 day",0 CELLS/uL
same,ABSOLUTE EOSINOPHIL,"72 h, time 3 day",37 CELLS/uL
same,ABSOLUTE LYMPHOCYTE,"72 h, time 3 day",12359.33 CELLS/uL
same,ABSOLUTE MONOCYTE,"72 h, time 3 day",122.67 CELLS/uL
same,ABSOLUTE SEGMENTED NEUTROPHIL,"72 h, time 3 day",847.67 CELLS/uL
same,BASOPHIL,"72 h, time 3 day",0%
same,EOSINOPHIL,"72 h, time 3 day",0.33%
same,ERYTHROCYTE COUNT,"72 h, time 3 day",5.75 x10E6/uL
same,HEMATOCRIT,"72 h, time 3 day",36.08%
same,HEMOGLOBIN,"72 h, time 3 day",14.07 G/DL
same,LEUKOCYTE COUNT,"72 h, time 3 day",13.37 x10E3/uL
same,LYMPHOCYTE,"72 h, time 3 day",92.5%
same,MEAN CORPUSCULAR HEMOGLOBIN,"72 h, time 3 day",24.47 pg
same,MEAN CORPUSCULAR HEMOGLOBIN CONCENTRATION,"72 h, time 3 day",38.98 G/DL
same,MEAN CORPUSCULAR VOLUME,"72 h, time 3 day",62.78 fL
same,MONOCYTE,"72 h, time 3 day",1%
same,NEUTROPHIL,"72 h, time 3 day",6.17%
same,NUCLEATED RED BLOOD CELLS,"72 h, time 3 day",0.17 /100WBC
same,PLATELET COUNT,"72 h, time 3 day",1202.17 x10E3/uL
same,ALANINE AMINOTRANSFERASE,"72 h, time 3 day",50.67 u/L
same,ALBUMIN,"72 h, time 3 day",4.13 G/DL
same,ALKALINE PHOSPHATASE,"72 h, time 3 day",356.33 u/L
same,ASPARTATE AMINOTRANSFERASE,"72 h, time 3 day",78.17 u/L
same,BLOOD UREA NITROGEN,"72 h, time 3 day",14.17 mg/dL
same,CARBON DIOXIDE,"72 h, time 3 day",31.33 mmol/L
same,CHLORIDE,"72 h, time 3 day",98.5 MEQ/L
same,CHOLESTEROL,"72 h, time 3 day",76.5 mg/dL
same,CREATINE PHOSPHOKINASE,"72 h, time 3 day",248.33 u/L
same,CREATININE,"72 h, time 3 day",0.2 mg/dL
same,GLUCOSE,"72 h, time 3 day",144 mg/dL
same,LACTATE DEHYDROGENASE,"72 h, time 3 day",107 u/L
same,LIPASE,"72 h, time 3 day",9.83 u/L
same,PHOSPHORUS,"72 h, time 3 day",12.8 mg/dL
same,POTASSIUM,"72 h, time 3 day",6.75 MEQ/L
same,SODIUM,"72 h, time 3 day",142 MEQ/L
same,TOTAL BILIRUBIN,"72 h, time 3 day",0.18 mg/dL
same,TOTAL PROTEIN,"72 h, time 3 day",5.98 G/DL
same,URIC ACID,"72 h, time 3 day",1.42 mg/dL
same,ABSOLUTE BASOPHIL,"120 h, time 5 day",0 CELLS/uL
same,ABSOLUTE EOSINOPHIL,"120 h, time 5 day",0 CELLS/uL
same,ABSOLUTE LYMPHOCYTE,"120 h, time 5 day",8681.17 CELLS/uL
same,ABSOLUTE MONOCYTE,"120 h, time 5 day",79.83 CELLS/uL
same,ABSOLUTE SEGMENTED NEUTROPHIL,"120 h, time 5 day",689 CELLS/uL
same,BASOPHIL,"120 h, time 5 day",0%
same,EOSINOPHIL,"120 h, time 5 day",0%
same,ERYTHROCYTE COUNT,"120 h, time 5 day",5.49 x10E6/uL
same,HEMATOCRIT,"120 h, time 5 day",33.55%
same,HEMOGLOBIN,"120 h, time 5 day",13.1 G/DL
same,LEUKOCYTE COUNT,"120 h, time 5 day",9.45 x10E3/uL
same,LYMPHOCYTE,"120 h, time 5 day",92.33%
same,MEAN CORPUSCULAR HEMOGLOBIN,"120 h, time 5 day",23.92 pg
same,MEAN CORPUSCULAR HEMOGLOBIN CONCENTRATION,"120 h, time 5 day",39.07 G/DL
same,MEAN CORPUSCULAR VOLUME,"120 h, time 5 day",61.22 fL
same,MONOCYTE,"120 h, time 5 day",0.67%
same,NEUTROPHIL,"120 h, time 5 day",7%
same,NUCLEATED RED BLOOD CELLS,"120 h, time 5 day",0.17 /100WBC
same,PLATELET COUNT,"120 h, time 5 day",1001.17 x10E3/uL
same,ALANINE AMINOTRANSFERASE,"120 h, time 5 day",49.33 u/L
same,ALBUMIN,"120 h, time 5 day",4.07 G/DL
same,ALKALINE PHOSPHATASE,"120 h, time 5 day",300.33 u/L
same,ASPARTATE AMINOTRANSFERASE,"120 h, time 5 day",83.5 u/L
same,BLOOD UREA NITROGEN,"120 h, time 5 day",16 mg/dL
same,CARBON DIOXIDE,"120 h, time 5 day",29.67 mmol/L
same,CHLORIDE,"120 h, time 5 day",100.5 MEQ/L
same,CHOLESTEROL,"120 h, time 5 day",74.33 mg/dL
same,CREATINE PHOSPHOKINASE,"120 h, time 5 day",489.67 u/L
same,CREATININE,"120 h, time 5 day",0.35 mg/dL
same,GLUCOSE,"120 h, time 5 day",151 mg/dL
same,LACTATE DEHYDROGENASE,"120 h, time 5 day",133.67 u/L
same,LIPASE,"120 h, time 5 day",11.17 u/L
same,PHOSPHORUS,"120 h, time 5 day",10.88 mg/dL
same,POTASSIUM,"120 h, time 5 day",5.5 MEQ/L
same,SODIUM,"120 h, time 5 day",145.7 MEQ/L
same,TOTAL BILIRUBIN,"120 h, time 5 day",0.2 mg/dL
same,TOTAL PROTEIN,"120 h, time 5 day",6.05 G/DL
same,URIC ACID,"120 h, time 5 day",0.68 mg/dL
